33 molecules from patent US20250382273A1 (INSTITUT NATIONAL DE LA SANTE ET DE LA RECHERCHE MEDICALE, priority 2022, published 2025) can be followed below.

pEC50: −log10 of the molar value. Where only a bound is given, the exact number is not on record here.

The test system of one assay is M. tuberculosis H37Rv_gfp. The format is cell-based, Mycobacterium tuberculosis. Conditions: in combination with pretomanid 20 ng·mL−1; 5 days at 37° C.; […]; read-out: EC50 H37Rv_gfp.
`O=C(Nc1nc2ccc(-c3ccncc3)cc2s1)[C@@H]1C2C=CC(C2)[C@@H]1C(=O)O` (some centres unmarked) [Example 64, 3-[[6-(4-pyridyl)-1,3-benzothiazol-2-yl]carbamoyl]bicyclo[2.2.1]hept-5-ene-2-carboxylic acid]: the pEC50 is 5.30 to 6.00. On the same count and under the same terms, with `COc1cc(Nc2ccc3nc(N4C(=O)[C@@H]5C6C=CC(C6)[C@@H]5C4=O)sc3c2)ccn1` [Example 92, 4-[6-[(2-methoxy-4-pyridyl)amino]-1,3-benzothiazol-2-yl]-4-azatricyclo[5.2.1.02,6]dec-8-ene-3,5-dione] the figure was 5.30 to 6.00; with `O=C1[C@@H]2[C@H](C(=O)N1c1nc3ccc(Oc4ccccc4)cc3s1)[C@@H]1C=C[C@H]2C1` [Example 19, (1R,2S,6R,7S)-4-(6-phenoxy-1,3-benzothiazol-2-yl)-4-azatricyclo[5.2.1.02,6]dec-8-ene-3,5-dione], more than 6.00; with `O=C(O)C1C2C=CC(C2)C1C(=O)Nc1nc2ccc([N+](=O)[O-])cc2s1` (centres unmarked) [Example 38, 3-[(6-nitro-1,3-benzothiazol-2-yl)carbamoyl]bicyclo[2.2.1]hept-5-ene-2-carboxylic acid], 5.30 to 6.00. Still for that read-out and setting: in the case of `O=C(Nc1nc2ccc(C#CC3CC3)cc2s1)[C@@H]1C2C=CC(C2)[C@@H]1C(=O)O` (some centres unmarked) [Example 79, 3-[[6-(2-cyclopropylethynyl)-1,3-benzothiazol-2-yl]carbamoyl]bicyclo[2.2.1]hept-5-ene-2-carboxylic acid] it was more than 6.00; in that of `COc1ccc2sc(NC(=O)[C@@H]3C4C=CC(C4)[C@@H]3C(=O)O)nc2c1` (some centres unmarked) [Example 5, 3-[(5-methoxy-1,3-benzothiazol-2-yl)carbamoyl]bicyclo[2.2.1]hept-5-ene-2-carboxylic acid], 5.30 to 6.00; in that of `O=C(Nc1nc2ccc(Nc3ccnc(F)c3)cc2s1)[C@@H]1C2C=CC(C2)[C@@H]1C(=O)O` (some centres unmarked) [Example 99, 3-[[6-[(2-fluoro-4-pyridyl)amino]-1,3-benzothiazol-2-yl]carbamoyl]bicyclo[2.2.1]hept-5-ene-2-carboxylic acid], 5.00 to 5.30. On the same count and under the same terms, with `O=C(Nc1nc2ccc(C3CCCCC3)cc2s1)[C@@H]1C2C=CC(C2)[C@@H]1C(=O)O` (some centres unmarked) [Example 52, 3-[(6-cyclohexyl-1,3-benzothiazol-2-yl)carbamoyl]bicyclo[2.2.1]hept-5-ene-2-carboxylic acid] the figure was more than 6.00; with `O=C(Nc1nc2ccc(C(F)(F)F)cc2s1)[C@@H]1C2C=CC(C2)[C@@H]1C(=O)O` (some centres unmarked) [Example 43, 3-[[6-(trifluoromethyl)-1,3-benzothiazol-2-yl]carbamoyl]bicyclo[2.2.1]hept-5-ene-2-carboxylic acid], more than 6.00.

Consider `O=C1[C@@H]2[C@H](C(=O)N1c1nc3ccc(-c4ccc(C(F)(F)F)nc4)cc3s1)[C@@H]1C=C[C@H]2C1` [Example 67, (1R,2S,6R,7S)-4-[6-[6-(trifluoromethyl)-3-pyridyl]-1,3-benzothiazol-2-yl]-4-azatricyclo [5.2.1.02,6]dec-8-ene-3,5-dione], for which the pEC50 is 5.30 to 6.00.

Take `Cc1ccc2nc(NC(=O)[C@@H]3C4CCC(C4)[C@@H]3C(=O)O)sc2c1` (stereo in doubt) [Example 3, 3-[(6-methyl-1,3-benzothiazol-2-yl)carbamoyl]norbornane-2-carboxylic acid]: the pEC50 was 5.30 to 6.00.

For the molecule `Cc1cc2nc(NC(=O)[C@@H]3C4C=CC(C4)[C@@H]3C(=O)O)sc2cc1C` (some centres unmarked) [Example 14, 3-[(5,6-dimethyl-1,3-benzothiazol-2-yl)carbamoyl]bicyclo[2.2.1]hept-5-ene-2-carboxylic acid], the pEC50 is more than 6.00. The same measure, in the same setting: with `O=C1C2C3C=CC(C3)C2C(=O)N1c1nc2ccc(-c3ccccc3C(F)(F)F)cc2s1` [Example 58, (1R,2S,6R,7S)-4-[6-[[2-(trifluoromethyl)phenyl]-1,3-benzothiazol-2-yl]-4-azatricyclo [5.2.1.02,6]dec-8-ene-3,5-dione] the figure was 5.00 to 5.30; with `O=C(Nc1nc2ccc(Oc3ncccc3C(F)(F)F)cc2s1)[C@@H]1C2C=CC(C2)[C@@H]1C(=O)O` (some centres unmarked) [Example 25, 3-[[6-[[3-(trifluoromethyl)-2-pyridyl]oxy]-1,3-benzothiazol-2-yl]carbamoyl]bicyclo[2.2.1]hept-5-ene-2-carboxylic acid], 5.30 to 6.00; with `COc1cc2nc(NC(=O)[C@@H]3C4C=CC(C4)[C@@H]3C(=O)O)sc2cc1OC` (some centres unmarked) [Example 9, 3-[(5,6-dimethoxy-1,3-benzothiazol-2-yl)carbamoyl]bicyclo[2.2.1]hept-5-ene-2-carboxylic acid], 5.00 to 5.30. Still for that read-out and setting: with `O=C1[C@@H]2[C@H](C(=O)N1c1nc3ccc(Oc4ccc(C(F)(F)F)cn4)cc3s1)[C@@H]1C=C[C@H]2C1` [Example 36, (1R,2S,6R,7S)-4-[6-[[5-(trifluoromethyl)-2-pyridyl]oxy]-1,3-benzothiazol-2-yl]-4-azatricyclo[5.2.1.02,6]dec-8-ene-3,5-dione] the figure was more than 6.00; with `O=C(Nc1nc2ccc(-c3ccccc3)cc2s1)[C@@H]1C2C=CC(C2)[C@@H]1C(=O)O` (some centres unmarked) [Example 51], more than 6.00. Still for that read-out and setting: with `O=C(Nc1nc2ccc(-c3ccoc3)cc2s1)[C@@H]1C2C=CC(C2)[C@@H]1C(=O)O` (some centres unmarked) [Example 69, 3-[[6-(3-furyl)-1,3-benzothiazol-2-yl]carbamoyl]bicyclo[2.2.1]hept-5-ene-2-carboxylic acid] the figure was more than 6.00; with `O=C1[C@@H]2C3C=CC(C3)[C@@H]2C(=O)N1c1nc2c(O)cccc2s1` [Example 74], more than 6.00. As to `COC(=O)c1ccc2nc(NC(=O)[C@@H]3C4C=CC(C4)[C@@H]3C(=O)O)sc2c1` (some centres unmarked) [Example 41, 3-[(6-methoxycarbonyl-1,3-benzothiazol-2-yl)carbamoyl]bicyclo[2.2.1]hept-5-ene-2-carboxylic acid], the pEC50 was 5.30 to 6.00. On the same count and under the same terms, with `O=C(Nc1nc2ccc(Nc3ccc(C(F)(F)F)cn3)cc2s1)[C@@H]1C2C=CC(C2)[C@@H]1C(=O)O` (some centres unmarked) [Example 96, 3-[[6-[[5-(trifluoromethyl)-2-pyridyl]amino]-1,3-benzothiazol-2-yl]carbamoyl]bicyclo[2.2.1]hept-5-ene-2-carboxylic acid] the figure was 5.30 to 6.00; with `COc1ccc(-c2ccc3nc(NC(=O)[C@@H]4C5C=CC(C5)[C@@H]4C(=O)O)sc3c2)cc1` (some centres unmarked) [Example 54, 3-[[6-(4-methoxyphenyl)-1,3-benzothiazol-2-yl]carbamoyl]bicyclo[2.2.1]hept-5-ene-2-carboxylic acid], more than 6.00. With `O=C(Nc1nc2ccc(-c3ccc(Cl)c(Cl)c3)cc2s1)[C@@H]1C2C=CC(C2)[C@@H]1C(=O)O` (some centres unmarked) [Example 56, 3-[[6-(3,4-dichlorophenyl)-1,3-benzothiazol-2-yl]carbamoyl]bicycle [2.2.1]hept-5-ene-2-carboxylic acid], the pEC50 was more than 6.00.

In the case of `O=C1[C@@H]2[C@H](C(=O)N1c1nc3ccc(Oc4cccc(C(F)(F)F)n4)cc3s1)[C@@H]1C=C[C@H]2C1` [Example 34, (1R,2S,6R,7S)-4-[6-[[6-(trifluoromethyl)-2-pyridyl]oxy]-1,3-benzothiazol-2-yl]-4-azatricyclo[5.2.1.02,6]dec-8-ene-3,5-dione], the pEC50 was 5.30 to 6.00. On to `O=C1[C@@H]2C3C=CC(C3)[C@@H]2C(=O)N1c1nc2ccc(-c3ccc(F)nc3)cc2s1` [Example 65, (1R,2S,6R,7S)-4-[6-(6-fluoro-3-pyridyl)-1,3-benzothiazol-2-yl]-4-azatricyclo[5.2.1.02.6]dec-8-ene-3,5-dione], for which the pEC50 is 5.30 to 6.00.

Take `O=C(Nc1nc2ccc(Nc3ccc(F)cn3)cc2s1)[C@@H]1C2C=CC(C2)[C@@H]1C(=O)O` (some centres unmarked) [Example 86, 3-[[6-[(5-fluoro-2-pyridyl)amino]-1,3-benzothiazol-2-yl]carbamoyl]bicyclo[2.2.1]hept-5-ene-2-carboxylic acid]: the pEC50 is more than 6.00.

Regarding `Cc1cccc2sc(NC(=O)[C@@H]3C4C=CC(C4)[C@@H]3C(=O)O)nc12` (some centres unmarked) [Example 16, 3-[(4-methyl-1,3-benzothiazol-2-yl)carbamoyl]bicyclo[2.2.1]hept-5-ene-2-carboxylic acid], the pEC50 is more than 6.00. Still for that read-out and setting: with `O=C(Nc1nc2ccc(-c3ccc(Cl)cc3)cc2s1)[C@@H]1C2C=CC(C2)[C@@H]1C(=O)O` (some centres unmarked) [Example 55, 3-[[6-(4-chlorophenyl)-1,3-benzothiazol-2-yl]carbamoyl]bicyclo[2.2.1]hept-5-ene-2-carboxylic acid] the figure was more than 6.00. On the same count and under the same terms, in the case of `Cc1ccnc(Oc2ccc3nc(NC(=O)[C@@H]4C5C=CC(C5)[C@@H]4C(=O)O)sc3c2)c1` (some centres unmarked) [Example 29, 3-[[6-[(4-methyl-2-pyridyl)oxy]-1,3-benzothiazol-2-yl]carbamoyl]bicyclo[2.2.1]hept-5-ene-2-carboxylic acid] it was more than 6.00; in that of `C#CCOc1ccc2nc(N3C(=O)[C@@H]4[C@H](C3=O)[C@@H]3C=C[C@H]4C3)sc2c1` [Example 73, (1R,2S,6R,7S)-4-(6-prop-2-ynoxy-1,3-benzothiazol-2-yl)-4-azatricyclo[5.2.1.02,6]dec-8-ene-3,5-dione], more than 6.00.

Still in this assay, the particulars now being: in combination with pretomanid, unit inferred; read-out: average EC50 H37Rv_gfp.
In the case of `O=C1[C@@H]2[C@H](C(=O)N1c1nc3ccc(Oc4ccc(C(F)(F)F)cn4)cc3s1)[C@@H]1C=C[C@H]2C1` [Example 36, (1R,2S,6R,7S)-4-[6-[[5-(trifluoromethyl)-2-pyridyl]oxy]-1,3-benzothiazol-2-yl]-4-azatricyclo[5.2.1.02,6]dec-8-ene-3,5-dione], the pEC50 was 6.66. Still for that read-out and setting: in the case of `COc1ccc(-c2ccc3nc(NC(=O)[C@@H]4C5C=CC(C5)[C@@H]4C(=O)O)sc3c2)cc1` (some centres unmarked) [Example 54, 3-[[6-(4-methoxyphenyl)-1,3-benzothiazol-2-yl]carbamoyl]bicyclo[2.2.1]hept-5-ene-2-carboxylic acid] it was 6.96.

The assay is the same for the next values; noted with them: read-out: EC50 H37Rv_gfp.
For `O=C1[C@@H]2[C@H](C(=O)N1c1nc3ccc(Oc4cc(C(F)(F)F)ccn4)cc3s1)[C@@H]1C=C[C@H]2C1` [Example 28, (1R,2S,6R,7S)-4-[6-[[4-(trifluoromethyl)-2-pyridyl]oxy]-1,3-benzothiazol-2-yl]-4-azatricyclo[5.2.1.02,6]dec-8-ene-3,5-dione], the pEC50 was more than 6.00. Same read-out and setting: in the case of `O=C1[C@@H]2[C@H](C(=O)N1c1nc3ccc(-c4ccc(O)cc4)cc3s1)[C@@H]1C=C[C@H]2C1` [Example 63, (1R,2S,6R,7S)-4-[6-(4-hydroxyphenyl)-1,3-benzothiazol-2-yl]-4-azatricyclo[5.2.1.02,6]dec-8-ene-3,5-dione] it was 5.00 to 5.30.

Take `O=C1[C@@H]2C3C=CC(C3)[C@@H]2C(=O)N1c1nc2ccc(Nc3ccnc(F)c3)cc2s1` [Example 98, 4-[6-[(2-fluoro-4-pyridyl)amino]-1,3-benzothiazol-2-yl]-4-azatricyclo[5.2.1.02,6]dec-8-ene-3,5-dione]: the pEC50 was 5.00 to 5.30.
